Assay results taken from patent publication US20100317642A1, “PHARMACEUTICAL COMPOSITION OF ORLISTAT” (INVENTIS DDS PVT LIMITED, priority 2007, published 2010).

Legend:
[1] = Effect of elevated temperature on appearance and handling properties (hot air oven, Petri dishes); type: physicochemical; conditions: for Appearance and handling properties at elevated temperature: hot air oven
From the text: The affect of elevated temperature on appearance and handling properties on the orlistat compositions of this invention was studied by slowly increasing the temperature of a hot air oven in which these compositions were kept in Petri dishes. Pure orlistat also was subjected to this study. To carry out a comparison with the innovator's formulation Xenical®, its contents were emptied in a Petri dish. The observations of this study are given below—

[2] = within the physiological pH range; cited from earlier work

Appearance and handling properties at elevated temperature ([1]; 30 ° C.): No change
Appearance and handling properties at elevated temperature ([1]; 35 ° C., -do- = same as cell above): -do-
Appearance and handling properties at elevated temperature ([1]; 37 ° C., -do- = same as cell above): softens
Appearance and handling properties at elevated temperature ([1]; 40 ° C.): Starts melting
Appearance and handling properties at elevated temperature ([1]; 45 ° C., cells wrap: 'Slightly soft and sticky', 'Melts completely'): Melts
Appearance and handling properties at elevated temperature ([1]; 50 ° C., -do- = same as cell above, Xenical cell wraps: 'Slightly soft and sticky, becomes powdery on touching'): -do-
Appearance and hardness after heating ([1]; Cooled down to less than 30° C., cells wrap: 'Regains its original hardness', 'Does not retain its original appearance'): Does not retain
SMILES: CCCCCCCCCCC[C@@H](C[C@@H]1OC(=O)[C@H]1CCCCCC)OC(=O)[C@H](CC(C)C)NC=O [Orlistat, orlistat]
solubility in water [2]: very low solubility
